From article PMC7614683, “A small molecule PI3Kα activator for cardioprotection and neuroregeneration” (Nature, 2023)

Biological target: T1, human p110β/p85α (PI3Kβ) (Homo sapiens, UniProt P42338)
T1 construct: Full-length human p110β/p85α and p110δ/p85α were cloned and expressed in a similar manner; Strep-tag followed by TEV protease site (N, cleaved yes); host or cells: Spodoptera frugiperda Sf9, baculovirus
Experiment: ADP-Glo in vitro lipid kinase assay, PI3Kβ
Format: biochemical
Description: Full-length human p110β/p85α and p110δ/p85α were cloned and expressed in a similar manner. Briefly, 5 litres of Spodoptera frugiperda (Sf9) cell culture at a density of 1.0 x 10^6 cells/ml were co-infected with both a p85α-encoding virus and a virus encoding p110β/δ with an N-terminal Strep-tag followed by a tobacco etch virus (TEV) protease site (plasmid OP832 for p110β, plasmid OP833 for p110δ and plasmid of OP809 for p85α). After a 48 h infection at 27°C, cells were harvested and washed with PBS. Cell pellets were then resuspended in Lysis Buffer (20 mM Tris pH 8.0, 150 mM NaCl, 5% glycerol, 2 mM β-mercaptoethanol, 1 EDTA-free protease inhibitor tablet (Roche) per 50 ml of buffer) and sonicated ar 4°C for 7 min in 15 sec intervals followed by a 15 sec wait. […]
For re-screening of HTS hits and routine compound profiling, the reaction mixture contained 2 μl PI3K enzyme, 2 μl compound and/or pY and 2 μl of liposome substrate mixed with ATP. […] Luminescence was read using a Sense (Hidex) plate reader. […]
For characterisation of the effects of 1938 on in vitro PI3K enzymology, all reactions were performed at room temperature with 384 white-polystyrene plates (Corning #3574). […] Data was expressed as velocity (nmol of ADP generated/nmol of enzyme/sec). […] Luminescence was read using a PHERAstar® plate reader with software version 5.41, and analyses were performed using GraphPad Prism 8/9.

T1 sequence (P42338 whole entry): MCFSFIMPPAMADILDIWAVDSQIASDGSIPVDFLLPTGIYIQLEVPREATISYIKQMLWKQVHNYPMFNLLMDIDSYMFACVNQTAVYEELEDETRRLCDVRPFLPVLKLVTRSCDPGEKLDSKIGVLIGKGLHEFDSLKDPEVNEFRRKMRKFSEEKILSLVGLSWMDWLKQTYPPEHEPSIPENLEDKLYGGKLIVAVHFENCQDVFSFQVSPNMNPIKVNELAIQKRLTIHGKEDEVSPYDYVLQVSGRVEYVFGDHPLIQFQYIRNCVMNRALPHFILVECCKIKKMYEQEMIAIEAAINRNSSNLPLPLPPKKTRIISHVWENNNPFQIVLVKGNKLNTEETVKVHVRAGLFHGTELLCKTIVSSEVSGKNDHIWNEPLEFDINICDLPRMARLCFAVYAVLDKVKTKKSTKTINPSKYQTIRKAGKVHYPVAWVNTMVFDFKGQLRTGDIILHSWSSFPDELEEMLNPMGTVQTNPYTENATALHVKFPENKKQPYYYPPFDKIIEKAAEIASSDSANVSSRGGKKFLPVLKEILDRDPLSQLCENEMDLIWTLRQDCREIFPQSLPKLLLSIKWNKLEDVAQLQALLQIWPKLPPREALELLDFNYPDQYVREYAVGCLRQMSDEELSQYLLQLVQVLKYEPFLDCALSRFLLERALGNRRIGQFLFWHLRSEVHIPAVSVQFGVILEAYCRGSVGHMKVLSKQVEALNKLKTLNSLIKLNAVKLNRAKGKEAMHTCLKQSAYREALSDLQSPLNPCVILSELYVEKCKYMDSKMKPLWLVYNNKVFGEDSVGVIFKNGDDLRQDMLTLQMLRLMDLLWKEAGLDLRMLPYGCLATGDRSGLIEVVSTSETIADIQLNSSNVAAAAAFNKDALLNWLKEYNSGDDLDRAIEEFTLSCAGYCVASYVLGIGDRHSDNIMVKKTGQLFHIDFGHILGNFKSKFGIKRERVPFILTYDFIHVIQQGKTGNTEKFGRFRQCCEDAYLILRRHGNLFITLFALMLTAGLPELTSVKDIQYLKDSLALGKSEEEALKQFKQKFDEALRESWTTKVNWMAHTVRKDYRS
T1 sequence (P27986 whole entry partner): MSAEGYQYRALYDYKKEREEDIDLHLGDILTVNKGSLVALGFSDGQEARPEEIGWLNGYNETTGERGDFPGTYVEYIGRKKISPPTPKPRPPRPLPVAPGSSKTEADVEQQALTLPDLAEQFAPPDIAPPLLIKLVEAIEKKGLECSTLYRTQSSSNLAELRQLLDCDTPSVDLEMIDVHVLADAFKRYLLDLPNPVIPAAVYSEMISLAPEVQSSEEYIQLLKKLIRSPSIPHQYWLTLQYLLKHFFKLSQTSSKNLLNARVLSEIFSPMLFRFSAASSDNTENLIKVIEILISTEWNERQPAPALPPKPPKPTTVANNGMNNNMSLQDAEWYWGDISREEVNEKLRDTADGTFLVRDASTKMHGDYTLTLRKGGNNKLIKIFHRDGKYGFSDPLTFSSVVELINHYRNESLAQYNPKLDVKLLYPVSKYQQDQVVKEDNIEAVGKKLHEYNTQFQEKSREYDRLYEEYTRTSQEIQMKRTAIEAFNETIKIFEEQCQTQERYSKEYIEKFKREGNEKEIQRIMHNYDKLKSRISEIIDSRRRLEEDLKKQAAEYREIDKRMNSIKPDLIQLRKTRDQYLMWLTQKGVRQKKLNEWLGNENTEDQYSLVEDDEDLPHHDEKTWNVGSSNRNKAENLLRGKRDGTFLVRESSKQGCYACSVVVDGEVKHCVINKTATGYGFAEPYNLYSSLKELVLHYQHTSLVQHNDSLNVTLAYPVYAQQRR

For `CCN1CCN(c2ccc(Nc3cc(Nc4cccc5c4N(C(C)=O)CC5)ccn3)cc2)CC1` [Compound 1938], the “activation of PI3Kβ” value was “but not PI3Kβ or PI3Kδ”.
